According to article PMC12498190, “A Photocaged N‐Phosphonopiperidinone as a Selective Photo‐Cleavable DPP8/9 Inhibitor” (Chembiochem, 2025):
Where two headings read alike, the source gives them in different places.

What was measured:
human DPP8 = biological target: T1, human DPP8 (Homo sapiens, UniProt Q6V1X1); test: DPP8 enzyme inhibition assay, AMC release from GP-AMC; format: biochemical; conditions: for IC50: 45 min pre-incubation, read-out: Apparent IC50
T1 construct: purchased Proteros Biostructures GmbH, Germany
Text: We then continued to investigate the biochemical properties of the photocaged compound 5 versus the photoreleased product resembling inhibitor 1. To this end, we performed biochemical enzyme inhibition assays with DPP8 and DPP9 before and after irradiation of 5. Resulting DPP8/9 inhibition was quantified by following the DPP8‐ or DPP9‐mediated proteolysis of the fluorophore 7‐amino‐4‐methylcoumarin (AMC) from the model substrate Gly‐Pro‐AMC (Figure 1C,D and Table 1 ). To induce photocleavage of 5, reaction mixtures were irradiated for 5 min with the same green LED lamp as before, followed by a pre‐incubation of 45 min with the photoreleased inhibitor prior to substrate addition.
Enzyme activity of human DPP4, DPP8, and DPP9 (Proteros Biostructures GmbH, Germany) was determined by measuring the initial velocity of AMC release from the fluorogenic substrate GP‐AMC (Sigma Aldrich, USA) using a Tecan Spark 10 M multimode microplate reader (Tecan Group Ltd., Switzerland) in activity buffer (20 mM HEPES/KOH pH 7.3, 110 mM potassium acetate, 2 mM magnesium acetate, 0.5 mM EGTA, 0.02% Tween 20, supplemented with 1 mM DTT) and a final volume of 20 μL for maximal 30 min at 30 °C. Prior to the activity measurement, 10 nM of the corresponding enzyme was incubated for 45 min at 30 °C and gentle shaking with the indicated compounds at concentrations ranging from 0 to 100 μM, followed by irradiation with a green LED lamp (λ = 520−530 nm; Eurolite, Germany) for 5 min. The corresponding compounds were dissolved in DMSO and diluted in activity buffer (final DMSO concentration: 1%). To the inhibitor–enzyme mixture, GP‐AMC was then added to a final concentration of 250 μM, and the activity measurement was started. The resulting enzyme activity was calculated from the slope (fluorescence release over time) and plotted against the concentrations of the inhibitor. Apparent IC50 values were calculated using Graph‐Pad Prism v10.4.1 using the equation: [Inhibitor] versus response‐Variable slope (four parameters). All measurements were performed in triplicate, and error bars represent standard errors of the fit.

DPP9 = DPP9 (Homo sapiens, UniProt Q86TI2); test: In vitro gel-based competitive ABPP in HEK293 cell lysates, 100 kDa band; set-up: endogenous in cells; host or cells: HEK293 (Cytion, Germany, 300192); conditions: HEK293 lysate, 10 µM competitor, 30 min; for Competition of ≡FP labeling (in words): 2 µM ≡FP
Method: Therefore, HEK293 cell lysates were pre‐incubated with 10 µM 5 or DMSO vehicle control for 30 min, followed by a labeling reaction with 2 µM of the serine hydrolase‐specific ABP fluorophosphonate‐alkyne (≡FP) or 10 µM 2 (Figure 2B). […] Of note, this band has been previously assigned as DPP9 (DPP8 would migrate in the same range, but is only expressed at low levels in the used cell line and therefore cannot be visualized by this approach).^[ [36] ^, [37] ^] […] Again, this labeling was observed regardless of prior irradiation. Subsequently, the competitive labeling experiment was conducted by pre‐incubation with compound 5, with or without subsequent irradiation.
Figure 2 Competitive ABPP with photo‐cleavable inhibitor 5 in HEK293 cells. A) Schematic overview of a competitive ABPP experiment. A proteome is pre‐incubated with a competitor, followed by a labeling reaction with an activity‐based probe (ABP). In the case of a photocaged inhibitor, the active compound can be released via irradiation. Target proteins of the competitor cannot be bound by the ABP, resulting in an absence of the respective protein band in‐gel analysis. Created in BioRender. Najdzion, M. (2025) https://BioRender.com/84zn8cb B) Gel‐based competitive ABPP experiment in HEK293 cell lysates with the broadband serine hydrolase ABP ≡FP or the DPP8/9‐directed ABP 2 and the photocaged inhibitor 5, at the indicated concentrations, after or without prior irradiation with green light for 5 min. The corresponding pre‐incubation time for 5 was 30 min. C) Corresponding in situ competitive ABPP experiment in HEK293 cell culture, again with 10 µM 2 for 1 h. Labeling was competed by pre‐incubation with 20 µM 5 for 1 h, followed by an activation of the photocaged inhibitor by irradiation for 5 min with a green LED lamp, if applicable. D) Green light treatment has no cytotoxic effect. HEK293 cells were irradiated with a green LED lamp in the presence of 0.5% DMSO for 5 min (‘light’), and cell viability was measured after 24 h. […] Data was normalized to the non‐irradiated control (‘dark’). E) Green light treatment leads to the release of the active DPP8/9 inhibitor. HEK293 cells were incubated with compound 1 or 5 for 24 h. For both compounds, cell viability was measured under ‘dark’ (not irradiated) and ‘light’ (irradiated for 5 min with a green LED lamp after the addition of the inhibitor) conditions. […] Data was normalized to the non‐irradiated DMSO control.
For in vitro ABPP, cell lysates were generated from HEK293 cells grown on a 10 cm tissue dish. […] The cell lysates were cleared via centrifugation (30 min, 20,817 × g, 4 °C), and protein concentration was determined with a modified Bradford assay using Roti‐Nanoquant (Carl Roth, Germany). […]

T1 sequence (Q6V1X1 whole entry): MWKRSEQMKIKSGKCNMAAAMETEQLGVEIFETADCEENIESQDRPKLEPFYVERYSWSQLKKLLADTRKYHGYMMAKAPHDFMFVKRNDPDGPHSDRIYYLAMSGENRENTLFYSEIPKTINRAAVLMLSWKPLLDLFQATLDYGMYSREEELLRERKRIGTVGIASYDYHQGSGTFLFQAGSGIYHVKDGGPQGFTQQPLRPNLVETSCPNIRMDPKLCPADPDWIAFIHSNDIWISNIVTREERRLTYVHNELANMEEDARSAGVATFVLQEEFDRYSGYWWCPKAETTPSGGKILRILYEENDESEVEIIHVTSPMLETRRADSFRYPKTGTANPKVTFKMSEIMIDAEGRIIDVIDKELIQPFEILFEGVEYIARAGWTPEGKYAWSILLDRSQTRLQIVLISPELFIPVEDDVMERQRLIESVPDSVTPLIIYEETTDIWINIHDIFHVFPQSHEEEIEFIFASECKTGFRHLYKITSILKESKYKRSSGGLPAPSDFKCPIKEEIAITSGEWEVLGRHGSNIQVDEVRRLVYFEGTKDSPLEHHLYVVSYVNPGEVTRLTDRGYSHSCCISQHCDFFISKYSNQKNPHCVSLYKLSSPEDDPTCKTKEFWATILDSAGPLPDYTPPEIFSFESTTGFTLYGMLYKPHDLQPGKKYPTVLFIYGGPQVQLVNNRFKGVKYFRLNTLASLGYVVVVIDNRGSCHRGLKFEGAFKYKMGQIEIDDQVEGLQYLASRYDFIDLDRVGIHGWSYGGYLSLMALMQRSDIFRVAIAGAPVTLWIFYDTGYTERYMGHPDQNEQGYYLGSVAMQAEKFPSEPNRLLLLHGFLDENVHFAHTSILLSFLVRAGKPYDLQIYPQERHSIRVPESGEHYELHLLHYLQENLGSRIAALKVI
DPP9, sequence (Q86TI2 whole entry): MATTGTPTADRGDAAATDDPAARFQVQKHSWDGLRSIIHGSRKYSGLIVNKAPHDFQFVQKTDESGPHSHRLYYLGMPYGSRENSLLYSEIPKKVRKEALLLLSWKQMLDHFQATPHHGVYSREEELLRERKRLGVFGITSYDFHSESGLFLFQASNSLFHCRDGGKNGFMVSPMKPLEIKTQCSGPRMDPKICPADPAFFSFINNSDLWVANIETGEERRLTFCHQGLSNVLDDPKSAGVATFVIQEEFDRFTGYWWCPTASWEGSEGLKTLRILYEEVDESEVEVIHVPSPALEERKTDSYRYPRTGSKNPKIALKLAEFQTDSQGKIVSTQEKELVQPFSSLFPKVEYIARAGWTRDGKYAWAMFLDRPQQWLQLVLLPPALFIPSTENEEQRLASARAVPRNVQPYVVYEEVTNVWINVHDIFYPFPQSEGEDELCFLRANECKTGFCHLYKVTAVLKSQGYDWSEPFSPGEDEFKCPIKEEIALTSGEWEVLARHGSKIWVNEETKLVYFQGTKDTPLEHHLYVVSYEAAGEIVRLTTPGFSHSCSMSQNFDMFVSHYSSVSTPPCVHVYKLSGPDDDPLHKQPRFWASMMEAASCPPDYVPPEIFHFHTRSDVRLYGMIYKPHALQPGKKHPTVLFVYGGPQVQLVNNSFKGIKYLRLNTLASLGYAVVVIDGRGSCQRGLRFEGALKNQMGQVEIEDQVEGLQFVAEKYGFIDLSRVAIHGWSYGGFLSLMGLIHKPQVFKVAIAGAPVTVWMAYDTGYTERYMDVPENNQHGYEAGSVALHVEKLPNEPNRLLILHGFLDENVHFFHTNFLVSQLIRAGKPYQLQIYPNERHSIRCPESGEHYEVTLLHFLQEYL

CCCCCc1ccc(SCCP(=O)(OCC)N2CCC[C@H](NC(=O)OCC3=C4C(C)=CC(C)=[N+]4[B-](C)(C)n4c(C)cc(C)c43)C2=O)cc1 (stereo partly shown) [Compound 5]
Dark/light ratio of apparent IC50 (human DPP8): 30 | Increase in potency after green light-mediated photorelease (human DPP8; apparent IC50 dark vs light): about 30 fold | IC50 (human DPP8; dark (without green light irradiation)): 1100 nM | IC50 (human DPP8; light (5 min green LED, 520-530 nm)): 37 ± 3 nM | Competition of ≡FP labeling (in words) (DPP9; green light 5 min, 100 kDa band assigned as DPP9): labeling competition of one specific band | Competition of ≡FP labeling (in words) (DPP9; without irradiation): did not result in any competition | Competition of DPP9 labeling by ABP 2 (in words) (DPP9; 10 µM 2, green light 5 min): efficient DPP9 labeling competition
